The record followed here is publication PMC4342408 (Structure(London, England:1993), 2014).

A word on the Kd: it is the free concentration of one partner at which half of the binding sites on the other are occupied at equilibrium, for simple one-to-one binding. One may read the stoichiometry N as the number of molecules, sites or subunits per partner or assembly.

Data set [1] addresses T1, HYPE (Homo sapiens, UniProt Q9BVA6, E234G).
T1 construct: gene FICD; 172–434
T1 sequence (Q9BVA6 172-434 E234G): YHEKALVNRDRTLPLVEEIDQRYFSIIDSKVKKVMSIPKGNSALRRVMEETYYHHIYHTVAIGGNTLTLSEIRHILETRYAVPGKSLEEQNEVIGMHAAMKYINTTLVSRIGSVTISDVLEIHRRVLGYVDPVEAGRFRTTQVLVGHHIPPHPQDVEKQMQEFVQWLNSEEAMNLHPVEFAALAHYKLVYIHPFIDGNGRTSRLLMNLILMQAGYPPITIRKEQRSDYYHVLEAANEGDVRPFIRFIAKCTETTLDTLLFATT
The data set is described as follows: differential scanning fluorimetry (thermal shift), […] ligand. The format is binding. In general terms: Differential scanning fluorimetry follows unfolding on heating by fluorescence.

Data set [2] deals with T2, HYPE (Homo sapiens, UniProt Q9BVA6, E234G).
T2 sequence (Q9BVA6 103-445 E234G): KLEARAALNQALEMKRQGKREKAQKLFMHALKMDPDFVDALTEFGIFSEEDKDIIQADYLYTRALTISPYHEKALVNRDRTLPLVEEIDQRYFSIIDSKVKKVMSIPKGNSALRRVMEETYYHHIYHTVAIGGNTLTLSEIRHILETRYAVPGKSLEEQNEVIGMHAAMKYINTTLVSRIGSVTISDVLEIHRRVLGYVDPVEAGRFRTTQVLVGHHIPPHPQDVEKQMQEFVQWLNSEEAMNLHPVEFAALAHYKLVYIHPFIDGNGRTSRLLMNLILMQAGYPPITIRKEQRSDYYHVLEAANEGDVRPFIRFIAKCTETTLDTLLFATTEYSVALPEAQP
Nature of the data set: ITC; crystal structure; thermal shift. More on the design: gene FICD; residues 103-445. The format is binding. On the technique in general: ITC needs no label: the signal is the heat of the interaction.

Data set [3] addresses T3, HYPE (Homo sapiens, UniProt Q9BVA6).
T3 construct: gene FICD; residues 103-445
T3 sequence (Q9BVA6 103-445): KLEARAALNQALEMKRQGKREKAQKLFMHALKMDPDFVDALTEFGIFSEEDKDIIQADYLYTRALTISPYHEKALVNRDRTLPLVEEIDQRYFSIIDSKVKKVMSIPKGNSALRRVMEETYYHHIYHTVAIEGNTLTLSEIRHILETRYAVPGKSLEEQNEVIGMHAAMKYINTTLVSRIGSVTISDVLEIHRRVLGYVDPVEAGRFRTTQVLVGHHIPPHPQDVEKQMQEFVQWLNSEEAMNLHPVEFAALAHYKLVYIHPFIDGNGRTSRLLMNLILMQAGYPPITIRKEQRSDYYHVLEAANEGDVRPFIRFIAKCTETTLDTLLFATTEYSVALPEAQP
The data set is described as follows: ITC; crystal structure; thermal shift. In kind it is binding.

The target of data set [4] is T2, HYPE. The data set is described as follows: crystal structure ([…] Å); thermal shift. The format is binding. Also on record: gene FICD; TPR-motifs, linker and FIC domain (lacking first 102 residues).
The target of data set [5] is wild-type HYPE construct lacking the first 102 amino-acid residues (construct used for crystallization) (human) (UniProt Q9BVA6). The data set is described as follows: SAXS; small angle X-ray scattering of soluble HYPE constructs in solution; methods in Supplemental Experimental Procedures.
Data set [6] concerns the molecule itself. The data set is described as follows: SEC; analytical gel filtration of purified HYPE constructs. Background: SEC sorts molecules by how far they enter the pores of the column.

With `O=c1ccn([C@@H]2O[C@H](CO[P@@](=O)(O)O[P@@](=O)(O)OP(=O)(O)O)[C@@H](O)[C@H]2O)c(=O)[nH]1` (stereo in doubt) [uridine triphosphate], in data set [1], the “differential scanning fluorimetry (thermal shift), 200 μM ligand” value was “a less strong binding of cytidine triphosphate and uridine triphosphate (Figure 6A)”.
Take `Nc1ncnc2c1ncn2[C@@H]1O[C@H](COP(=O)(O)OP(=O)(O)O)[C@@H](O)[C@H]1O` [ADP]: the Kd in data set [2] amounted to 160 nM; in data set [3] it was 1500 nM.
For `Nc1ncnc2c1ncn2C1OC(COP(=O)(O)OP(=O)(O)OP(=O)(O)O)C(O)C1O` (centres unmarked) [ATP], the “crystal structure (2.7 Å); thermal shift” value in data set [4] is given as “we have also obtained structures with the ATP cofactor bound to an E234G variant”.
Consider `Nc1nc2c(ncn2[C@@H]2O[C@H](COP(=O)(O)OP(=O)(O)OP(=O)(O)O)[C@@H](O)[C@H]2O)c(=O)[nH]1` [guanosine-5'-triphosphate], for which the “differential scanning fluorimetry (thermal shift), 200 μM ligand” value in data set [1] was “showed similar binding of ATP and guanosine-5'-triphosphate”.
As to “wild-type HYPE construct lacking the first 102 amino-acid residues (construct used for crystallization) (from UniProt Q9BVA6 103-458) (domain or fragment)”, the stoichiometry N in data set [5] is 2.

B1: HYPE variant (103–434), containing TPR-motifs, linker, and FIC domain (domain or fragment, human, UniProt Q9BVA6 103-434, looked up)
chain: KLEARAALNQALEMKRQGKREKAQKLFMHALKMDPDFVDALTEFGIFSEEDKDIIQADYLYTRALTISPYHEKALVNRDRTLPLVEEIDQRYFSIIDSKVKKVMSIPKGNSALRRVMEETYYHHIYHTVAIEGNTLTLSEIRHILETRYAVPGKSLEEQNEVIGMHAAMKYINTTLVSRIGSVTISDVLEIHRRVLGYVDPVEAGRFRTTQVLVGHHIPPHPQDVEKQMQEFVQWLNSEEAMNLHPVEFAALAHYKLVYIHPFIDGNGRTSRLLMNLILMQAGYPPITIRKEQRSDYYHVLEAANEGDVRPFIRFIAKCTETTLDTLLFATT
notes: human HYPE (FICD), residues 103-434: TPR-motifs (105-135, 140-170), linker (170-215), FIC domain (215-432); cloned into pOPINS; wild type; also called HYPE (103-434); source: E. coli C41(DE3), purified (Ni2+ chelating, Q-sepharose, gel filtration)
As to B1, the “stoichiometry N” value in data set [6] was found to be 2.

B2: HYPE (172–445), containing the linker helix and FIC domain (domain or fragment, human, UniProt Q9BVA6 172-445, looked up)
chain: YHEKALVNRDRTLPLVEEIDQRYFSIIDSKVKKVMSIPKGNSALRRVMEETYYHHIYHTVAIEGNTLTLSEIRHILETRYAVPGKSLEEQNEVIGMHAAMKYINTTLVSRIGSVTISDVLEIHRRVLGYVDPVEAGRFRTTQVLVGHHIPPHPQDVEKQMQEFVQWLNSEEAMNLHPVEFAALAHYKLVYIHPFIDGNGRTSRLLMNLILMQAGYPPITIRKEQRSDYYHVLEAANEGDVRPFIRFIAKCTETTLDTLLFATTEYSVALPEAQP
notes: human HYPE (FICD), residues 172-445: linker helix and FIC domain; cloned into pOPINS; also called ΔTPR; HYPE lacking TPR-motifs; source: E. coli C41(DE3), purified (Ni2+ chelating, Q-sepharose, gel filtration)
On to B2, for which the binding result in data set [6] is “binds”.
